US11530206B2, “Phenylaminopyrimidine amide autophagy inhibitors and methods of use thereof” (Deciphera Pharmaceuticals, LLC, priority 2019, dated 2022)
pIC50: −log10 of the molar value.

Target: T1, ULK1 kinase (Homo sapiens, UniProt O75385)
T1 construct: purchased Eurofins 14-959
T1 sequence (O75385 with tags, fused parts or gaps): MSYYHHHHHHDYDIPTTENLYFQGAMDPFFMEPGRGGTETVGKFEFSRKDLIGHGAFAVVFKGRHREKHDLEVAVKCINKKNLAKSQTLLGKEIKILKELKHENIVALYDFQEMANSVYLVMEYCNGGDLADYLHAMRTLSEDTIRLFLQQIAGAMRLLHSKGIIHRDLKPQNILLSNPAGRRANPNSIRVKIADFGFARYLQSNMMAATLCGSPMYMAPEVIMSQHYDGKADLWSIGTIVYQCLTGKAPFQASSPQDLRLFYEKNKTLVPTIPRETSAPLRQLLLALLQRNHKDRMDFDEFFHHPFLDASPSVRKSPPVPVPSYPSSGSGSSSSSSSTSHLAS
Assay: Biochemical assay for ULK1.2 (coupled pyruvate kinase/lactate dehydrogenase assay)
Conditions: 19 nM ULK1 (residues 1-314, His tag), myelin basic protein, 1 mM ATP
Summary of the method: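 Coupled assay followed the fall in absorbance at 340 nm continuously for 6 hours at 30 °C, with compounds serially diluted at 1% DMSO final. Rates from the 2–3 h window were normalised to no-compound and reference-inhibitor controls. IC50 came from a four-parameter sigmoidal fit.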

Row | Compound | pIC50
1 | CN1CCN(c2ccc(Nc3ncc(Cl)c(NCCCN4CCCOCC4=O)n3)c(C3CC3)c2)CC1 [Example 55] | 6.30 to 7.00
2 | CN1CCN(c2ccc(Nc3ncc(C(F)(F)F)c(NCCCN4CCOCCC4=O)n3)c(C3CC3)c2)CC1 [Example 70] | 7.60 to 9.00
3 | CCc1cc(N2CCN(C)CC2)ccc1Nc1ncc(Br)c(NCCCN2CCOCCC2=O)n1 [Example 76] | 7.60 to 9.00

Other lines, results leading:

Row | pIC50 | Compound
4 | 7.60 to 9.00 | CN1CCN(c2ccc(Nc3ncc(C(F)(F)F)c(NCCCN4CCCCC4=O)n3)c(C3CC3)c2)CC1 [Example 14]
5 | 7.60 to 9.00 | CCc1cc(N2CCN(C)CC2)ccc1Nc1ncc(C(F)(F)F)c(NCCCN2CCCOC2=O)n1 [Example 39]
6 | 7.60 to 9.00 | CN1CCN(c2ccc(Nc3ncc(C(F)(F)F)c(NCCCN4CCCOCC4=O)n3)c(C3CC3)c2)CC1 [Example 52]
